Test results as given in patent publication US4977155A, “1,2,3-triazolo compounds” (priority 1988, dated 1990).
Converted amounts (≈) assume the structure as drawn. Like-named read-outs stand apart in the source and are kept apart here.

Tests used:
[1] = test system: N-methyl-D-aspartate (NMDA) receptors; settings: cited from earlier work
kainate receptors = settings: in words, background; cited from earlier work
Quisqualate receptors = settings: in words, background; cited from earlier work
[2] = biological target: quisqualate type receptors; experiment: 3H-AMPA binding (Test 1); settings: rat cerebral cortical membrane homogenate; 5 nM 3H-AMPA; 0° C., 30 min, pH 7.1
From the text: The quisqualate receptor binding activity of the compounds of the present invention can be illustrated by determining their capability for displacing radioactively labelled 2-amino-3-hydroxy-5-methyl-4-isoxazolepropionic acid (AMPA) from the quisqualate type receptors.
The displacement activity of the compounds may be shown by determining the IC50 value which represents the concentration (μg/ml) which causes a displacement of 50% of the specific binding of ^3 H-AMPA.
^3 H-AMPA binding (Test 1)
500 μl of thawed rat cerebral cortical membrane homogenate in Tris-HCl (30 mM), CaCl2 (2.5 mM) and KSCN (100 mM) pH 7.1 were incubated at 0° C. for 30 min. with 25 μl ^3 H-AMPA (5 nM final concentration) and the test compound and buffer. Non-specific binding was determined by incubation with L-glutamic acid (600 μM final concentration). The binding reaction was terminated by adding 5 ml of ice-cold buffer followed by filtration through Whatman GF/C glass fibre filters and 2×5 ml wash with ice-cold buffer. Bound radioactivity was measured by scintillation counting. IC50 was determined by Hill analysis of at least four concentrations of test compound.

[3] = test system: NMDA stimulated ^3 H-GABA release from cultured mouse cortex neurons; experiment: Inhibition of NMDA stimulated 3H-GABA release from cultured mouse cerebral cortex interneurons (Test 3); type: cell-based; settings: Neuron, 3 μg/ml NMDA, read-out: Test 3 IC50 (inhibits 50% of NMDA induced 3H-GABA release)
From the text: The NMDA antagonistic properties of the compounds is illustrated by determining their capability to antagonize NMDA stimulated ^3 H-GABA release from cultured mouse cortex neurons.
The NMDA antagonistic activity of the compounds may be shown by determining the IC50 value, which represents the concentration (μg/ml) which inhibits 50% of NMDA induced ^3 H-GABA release.
Inhibition of NMDA stimulated ^3 H-GABA release from cultured mouse cerebral cortex interneurons (Test 3) Release experiments are performed using the model described by Drejer et al. (Life Sci. 38, 2077 (1986)). To cerebral cortex interneurons cultured in petri dishes (30 mm) are added 100 μg/ml 3-vinyl-GABA one hour before the experiment in order to inhibit degradation of GABA in the neurons. 30 min before the experiment 5 μCi ^3 H-GABA is added to each culture and after this preloading period the cells are washed twice with a HEPES (N-2 Hydroxyethylpiperazine-N'-2-ethanesulfonic acid) buffered saline (HBS) containing 10 mM HEPES, 135 mM NaCl, 5 mM KCl, 0.6 mM MgSO4, 1.0 mM CaCl2 and 6 mM D-glucose; pH 7 and placed in a superfusion system. This system consists of a peristaltic pump continuously delivering thermostated 37° C. superfusion medium from a reservoir to the top of a slightly-tilted petri dish. The cell monolayer at the bottom of the dish is covered with a piece of nylon mesh to facilitate dispersion of medium over the cell layer. The medium is continuously collected from the lower part of the dish and delivered to a fraction collector. Initially, the cells are superfused with HBS for 15 min (flow rate 2 ml/min). Then cells are stimulated for 30 sec every 4 min by changing the superfusion medium from HBS to a corresponding medium containing NMDA and antagonists according to the following scheme: […]
stimulation no. 1: 3 μg/ml NMDA stimulation no. 2: 3 μg/ml NMDA+0.3 μg/ml antagonist stimulation no. 3: 3 μg/ml NMDA+3 μg/ml antagonist
Test substances are dissolved in water or 48% ethanol. The final ethanol concentration in the assay must not exceed 0.1%.
The release of ^3 H-GABA in the presence of NMDA (stimulated relase in cpm) are corrected for the mean basal release (cpm) before and after the stimulation.
The stimulated release in the presence of antagonists are expressed relative to the stimulated release by NMDA alone and the IC50 value for the antagonist is calculated (the concentration (μg/ml) of the test substance which inhibits 50% of the NMDA induced ^3 H-GABA release) either from a dose response curve or from the formula: [formula] where Co is stimulated release in control assays and Cx is the stimulated release in the test assay (the calculation assumes normal mass-action interaction). 25-75% inhibition of the NMDA stimulation must be obtained, before calculation of IC50.

[4] = test system: quisqualic acid stimulated Na^+ -efflux from rat striatal slices; experiment: Antagonism of quisqualic acid induced 22Na+ release (Test 2); type: cell-based; settings: rat striatum slices; quisqualic acid 2 μg/ml; read-out: Test 2 EC50 (reduces rate of quisqualic acid stimulated sodium efflux by 50%)
Protocol: The quisqualate antagonism is measured by determining the EC50 value which represents the concentration which reduces the rate of quisqualic acid stimulated sodium efflux by 50%.
Antagonism of quisqualic acid induced ^22 Na^+ -release (Test 2)
Slices from rat striatum were preincubated with ^22 Na^+ for 30 min. After the ^22 Na^+ loading period, the slices were successively and every minute transferred through a series of tubes, each containing 1.5 ml of a non-radioactive physiological solution saturated with O2, with the help of a basket shaped sieve. Quisqualic acid (2 μg/ml) was present in the last 5 tubes and the compound to be tested was present in the same 5 tubes plus 3 tubes before. The amount of radioactivity in each washout tube as well as that left in the slices at the end of the experiment was measured by scintillation counting. EC50 were calculated by Hill analysis from at least three different concentrations of test compound as the concentration of test compound which reduces the efflux rate of ^22 Na^+ -ions to 50% of the efflux rate in the absence of test compound.

SMILES | Test 1 IC50 (displacement of 50% of the specific binding of 3H-AMPA) [2] | IC50 [3] [µg/mL] | also measured
O=C(O)[C@@H]1CCCN[C@H]1C(=O)O (relative stereo) [trans-2,3-PDA, trans-2,3-piperidine dicarboxylic acid] | – | – | agonist activity on NMDA receptors ([1]; in words, background): strong to moderate agonist activity
N[C@@H](CCC(=O)NCC(=O)O)C(=O)O [3-glutamyl-glycine] | – | – | selectivity for kainate receptors (kainate receptors): some selectivity for kainate receptors
Cc1onc(O)c1CC(N)C(=O)O (stereo not drawn) [AMPA, 2-amino-3-hydroxy-5-methyl-4-isoxazolepropionic acid] | – | – | agonist activity on quisqualate receptors (Quisqualate receptors): potent agonists
N[C@H](CCCC(=O)O)C(=O)O [D-2-amino-adipic acid] | – | – | antagonist activity on NMDA receptors ([1]; in words, background): moderate antagonist activity
N[C@H](CCCCCP(=O)(O)O)C(=O)O [D-APH, 2-amino-7-phosphonoheptanoic acid] | – | – | antagonist activity on NMDA receptors ([1]; in words, background): most potent and selective antagonists
N[C@H](CCCP(=O)(O)O)C(=O)O [D-APV, 2-amino-5-phosphono-valeric acid] | – | – | antagonist activity on NMDA receptors ([1]; in words, background): most potent and selective antagonists
N[C@H](CCC(=O)O)C(=O)O [D-glutamic acid] | – | – | agonist activity on NMDA receptors [1]: strong to moderate agonist activity
Oc1nc2ccc3nn[nH]c3c2nc1O [Ex 1, 7,8 Dihydroxy-1H-1,2,3-triazolo[4,5-f]quinoxaline] | 13,3 μg/ml | – | –
O=[N+]([O-])c1cc2nc(O)c(O)nc2c2[nH]nnc12 [Ex 2, 7,8-Dihydroxy-4-nitro-1H-1,2,3-triazolo[4,5-f]quinoxaline] | 0,85 μg/ml | 0.26 (≈ 1.05 µM) | EC50 [4]: 10 µg/mL (≈ 40.3 µM)
N#Cc1cc2nc(O)c(O)nc2c2[nH]nnc12 [Ex 4, 4-Cyano-7,8-dihydroxy-1H-1,2,3-triazolo[4,5-f]quinoxaline] | 10 µg/mL | – | –
Cn1nnc2c([N+](=O)[O-])cc3nc(O)c(O)nc3c21 [Ex 6, 7,8-Dihydroxy-1-methyl-4-nitro-1H-1,2,3-triazolo[4,5-f]quinoxaline] | 0,31 μg/ml | 0.096 (≈ 0.366 µM) | EC50 [4]: 4.1 µg/mL (≈ 15.6 µM)
O=[N+]([O-])c1cc2nc(O)c(O)nc2c2[nH]ncc12 [Ex 9, 7,8-Dihydroxy-4-nitro-1H-pyrazolo[3,4-f]quinoxaline] | 0,41 μg/ml | 0.14 (≈ 0.566 µM) | –
Cn1nc2c([N+](=O)[O-])cc3nc(O)c(O)nc3c2n1 [Ex 11, 7,8-Dihydroxy-2-methyl-4-nitro-2H-1,2,3-triazolo[4,5-f]quinoxaline] | 0,36 μg/ml | 0.14 (≈ 0.534 µM) | –
Cn1nnc2c3nc(O)c(O)nc3cc([N+](=O)[O-])c21 [Ex 13, 7,8-Dihydroxy-3-methyl-4-nitro-3H-1,2,3-triazolo[4,5-f]quinoxaline] | 0,07 μg/ml | 0.11 (≈ 0.42 µM) | –
Cn1nnc2c3nc(O)c(O)nc3cc(C#N)c21 [Ex 15, 4-Cyano-7,8-dihydroxy-3-methyl-3H-1,2,3-triazolo[4,5-f]quinoxaline] | 0,19 μg/ml | 0.73 (≈ 3.01 µM) | –
O=[N+]([O-])c1cc2nc(O)c(O)nc2c2scnc12 [Ex 17, 7,8-Dihydroxy-4-nitrothiazolo[5,4-f]quinoxaline] | 0,21 μg/ml | – | –
O=[N+]([O-])c1cc2nc(O)c(O)nc2c2nonc12 [Ex 24, 7,8-Dihydroxy-4-nitro-l,2,5-oxadiazolo(3,4-f)quinoxaline] | 0,23 μg/ml | 0.13 (≈ 0.522 µM) | –
O=[N+]([O-])c1cc2nc(O)c(O)nc2c2nccnc12 [Ex 35, 2,3-Dihydroxy-6-nitropyrazino(2,3-f)quinoxaline] | 0,39 μg/ml | 0.1 (≈ 0.386 µM) | –
Cc1nc2c([N+](=O)[O-])cc3nc(O)c(O)nc3c2nc1C [Ex 36, 2,3-Dihydroxy-8,9-dimethyl-6-nitropyrazino(2,3-f)quinoxaline] | 0,39 μg/ml | 0.14 (≈ 0.487 µM) | –
O=[N+]([O-])c1cc2nc(O)c(O)nc2c2nsnc12 [Ex 38, 7,8-Dihydroxy-4-nitro-1,2,5-thiadiazolo(3,4-f)quinoxaline] | 0,13 μg/ml | 0.09 (≈ 0.339 µM) | –
Oc1nc2ccc3sccc3c2nc1O [Ex 39, 2,3-Dihydroxythieno[3,2-f]quinoxaline] | 1,9 μg/ml | – | –
CCOC(=O)CC[C@H](N)C(=O)OCC [GDEE, Glutamic acid diethyl ester] | – | – | antagonist activity on quisqualate receptors (Quisqualate receptors): selective but very weak antagonist
N[C@H](C(=O)O)c1cc(=O)[nH]o1 [Ibotenic acid] | – | – | agonist activity on NMDA receptors ([1]; in words, background): strong to moderate agonist activity
N[C@@H](CCC(=O)O)C(=O)O [L-glutamic acid] | – | – | agonist activity on quisqualate receptors (Quisqualate receptors): potent agonists
N[C@@H](CCS(=O)(=O)O)C(=O)O [L-homocysteic acid] | – | – | agonist activity on NMDA receptors ([1]; in words, background): strong to moderate agonist activity
N[C@H](CCC[C@H](N)C(=O)O)C(=O)O [diaminopimelic acid] | – | – | antagonist activity on NMDA receptors ([1]; in words, background): moderate antagonist activity
N[C@@H](Cn1oc(=O)[nH]c1=O)C(=O)O [quisqualic acid] | – | – | agonist activity on quisqualate receptors (Quisqualate receptors): activated selectively
